By pEC50 is commonly meant the EC50 on a negative log10 scale, so that one unit is a factor of ten.

pEC50, pIC50: −log10 of the molar value. Some results are limits rather than exact numbers.

Data set [1] concerns IL-2-FL/Gaussia Luciferase. The data set can be described thus: Dox Induced IL2-FL-Gluc Assay. In kind it is cell-based. Particulars: for pIC50: 24 hr Dox induction, 293FRT/TO cells, read-out: 24 hr Dox Inducible IL2FLGluc 293FRT/TO: Mean IC50; for 24 hr Dox Inducible IL2FLGluc 293FRT/TO: IL2/PD1: ratio of IL2FLGluc IC50 to PD1ssGluc IC50. The procedure, abridged: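 Doxycycline induces an IL-2(1-153)–Gaussia luciferase fusion in a stable Flp-In 293 T-REx line. Compound exposure runs alongside induction at 37° C.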

Data set [2] in a line: Liver Microsome Stability Assay (mouse). Particulars: mouse liver microsomes, with NADPH, 1.0 uM compound. For orientation: Liver microsomes are a subcellular fraction often used to study metabolism.
Experimental: (§1) Stability of a compound was assessed in the presence of liver microsomes from various sources—mouse, rat, monkey and human liver microsomes. 1.0 uM compound, 0.4% DMSO in 0.1 M Potassium Phosphate with 1.0 mg/mL liver microsomes, were incubated at 37° C. with or without 1 mM NADPH. The samples were quenched at 0, and 30 minutes.
Data set [3] deals with multiple myeloma cell line NCI-H929. The data set can be described thus: H929 Cell Viability Assay. In kind it is cell-based, human. Particulars: Homo sapiens, NCI-H929, 48 h, NCI-H929 cells, Celltiter-Glo. The procedure, abridged:
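Viability is scored by CellTiter-Glo luminescence following a 48-hour treatment at 37° C. Data for structures shown without stereochemistry refer to stereoisomer mixtures.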
Background: In ATP-based viability assays light output follows the ATP content of the culture.

The subject of data set [4] is PD1-ss+10aa/Gaussia Luciferase. Description: Dox-Induced PD1-ss-Gluc Assay. In kind it is cell-based. The note with it: 24 hr Dox induction; 293FRT/TO cells; read-out: 24 hr Dox Inducible PD1ssGluc 293FRT/TO: Mean IC50. The procedure, abridged:
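Gaussia luciferase fused downstream of the PD1 signal peptide plus 10 residues was expressed on doxycycline induction in stably transfected Flp-In 293 T-REx cells. Compounds were added with doxycycline and incubated at 37 °C, 5% CO2.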

Data set [5] in a line: Liver Microsome Stability Assay (monkey). Particulars: monkey liver microsomes, with NADPH, 1.0 uM compound.
Experimental: as §1
Data set [6] concerns TNFα-FL/Gaussia Luciferase. The data set can be described thus: Dox Induced TNFα-FL-Gluc Assay. In kind it is cell-based. The note with it: for pIC50: 24 hr Dox induction, 293FRT/TO cells, read-out: 24 hr Dox Inducible TNFaFLGluc 293FRT/TO: Mean IC50; for 24 hr Dox Inducible TNFaFLGluc 293FRT/TO: TNF/PD1: ratio of TNFaFLGluc IC50 to PD1ssGluc IC50. The method in brief: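 Doxycycline-inducible Gaussia luciferase-tagged full-length TNFα (1-233) was expressed in stable Flp-In 293 T-REx cells. Compounds were co-added with doxycycline and incubated at 37 °C, 5% CO2.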

A short description of data set [7]: Liver Microsome Stability Assay (human). The note with it: human liver microsomes, with NADPH, 1.0 uM compound.
Experimental: as §1
Data set [8] concerns multiple myeloma cell line U266B1. Description: U266 Cell Viability Assay. In kind it is cell-based, human. The note with it: Homo sapiens, U-266, 48 h, U266B1 cells, Celltiter-Glo. The procedure, abridged: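 Viability is measured as luciferase signal from CellTiter-Glo following a 48-hour incubation with compound at 37° C. under 5% CO2. Where structures lack drawn stereochemistry, values refer to stereoisomer mixtures.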

For data set [9], the system named is HER3-ss+4aa/Gaussia Luciferase. Description: Dox-Induced Her3-ss-Gluc Assay. In kind it is cell-based. Particulars: 24 hr Dox induction; 293FRT/TO cells; read-out: 24 hr Dox Inducible Her3(ss + 4)Gluc 293FRT/TO: Mean IC50. The method in brief:
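Reporter line: Flp-In 293 T-REx, T-REx-regulated HER3-ss+4aa fused to Gaussia luciferase. Compound co-added with doxycycline after overnight plating, 37° C., 5% CO2.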

A short description of data set [10]: Liver Microsome Stability Assay (rat). The note with it: rat liver microsomes, with NADPH, 1.0 uM compound.
Experimental: as §1

In the case of `CC1CCc2c(/C=C/c3csc(NC(=O)c4cccn4Cc4ccnc(F)c4)n3)ncn2C1` (stereo not drawn) [Compound B98, (E)-1-((2-fluoropyridin-4-yl)methyl)-N-(4-(2-(6-methyl-5,6,7,8-tetrahydroimidazo[1,5-a]pyridin-1-yl)vinyl)thiazol-2-yl)-1H-pyrrole-2-carboxamide], the pIC50 in data set [1] was 5.64; in data set [4], 7.51; in data set [6] it was less than 4.60; in [9], 5.80. The “24 hr Dox Inducible IL2FLGluc 293FRT/TO: IL2/PD1” value in data set [1] was found to be 74. In data set [2], the “Liver Microsome Stability (Multiple Species): Mouse - % Remaining after 30 min w/NADPH” value was 6.81%. Moreover, the negative-log EC50 (pEC50) in data set [3] and in data set [8] was less than 4.60 throughout. Moreover, the “Liver Microsome Stability (Multiple Species): Monkey - % Remaining after 30 min w/NADPH” value in data set [5] was found to be 0.72%. For the same molecule, in [6], the “24 hr Dox Inducible TNFaFLGluc 293FRT/TO: TNF/PD1” value is reported as greater than 814. Moreover, the “Liver Microsome Stability (Multiple Species): Human - % Remaining after 30 min w/NADPH” value in [7] is 0.2%. In addition, the “Liver Microsome Stability (Multiple Species): Rat - % Remaining after 30 min w/NADPH” value in data set [10] is 6.91%.

Consider `Cc1cc(C(=O)Nc2nc(/C=C/c3cn(C(C)C)cn3)cs2)n(Cc2ccnc(F)c2)c1` [Compound B99, (E)-1-((2-fluoropyridin-4-yl)methyl)-N-(4-(2-(1-isopropyl-1H-imidazol-4-yl)vinyl)thiazol-2-yl)-4-methyl-1H-pyrrole-2-carboxamide], for which the pIC50 in data set [1] was less than 4.60; in [4] it was 6.06; in data set [6], less than 4.60; in data set [9], 4.99. The “24 hr Dox Inducible IL2FLGluc 293FRT/TO: IL2/PD1” value in data set [1] is greater than 28. Also, the “Liver Microsome Stability (Multiple Species): Mouse - % Remaining after 30 min w/NADPH” value in [2] was 49.5%. The pEC50 in [3] and in [8] was less than 4.60 throughout. In [5], the “Liver Microsome Stability (Multiple Species): Monkey - % Remaining after 30 min w/NADPH” value was 2.99%. Also, the “24 hr Dox Inducible TNFaFLGluc 293FRT/TO: TNF/PD1” value in [6] is greater than 28.4. The “Liver Microsome Stability (Multiple Species): Human - % Remaining after 30 min w/NADPH” value in data set [7] stood at 4.91%. In addition, in data set [10], the “Liver Microsome Stability (Multiple Species): Rat - % Remaining after 30 min w/NADPH” value is 49.7%.

As to `CC1CCCc2c(/C=C/c3csc(NC(=O)c4cccn4Cc4ccnc(F)c4)n3)ncn21` (stereo not drawn) [Compound B101, (E)-1-((2-fluoropyridin-4-yl)methyl)-N-(4-(2-(5-methyl-5,6,7,8-tetrahydroimidazo[1,5-a]pyridin-1-yl)vinyl)thiazol-2-yl)-1H-pyrrole-2-carboxamide], the pIC50 in [1] is 5.19; in [4], 7.93; in [6], 4.72; in [9], 5.37. In data set [1], the “24 hr Dox Inducible IL2FLGluc 293FRT/TO: IL2/PD1” value is reported as 560. Besides, in data set [2], the “Liver Microsome Stability (Multiple Species): Mouse - % Remaining after 30 min w/NADPH” value is given as 6.67%. Moreover, the pEC50 in [3] was 4.82; in data set [8], 4.71. For the same molecule, the “Liver Microsome Stability (Multiple Species): Monkey - % Remaining after 30 min w/NADPH” value in data set [5] turned out to be 0.25%. The “24 hr Dox Inducible TNFaFLGluc 293FRT/TO: TNF/PD1” value in [6] was determined as 1640. Also, the “Liver Microsome Stability (Multiple Species): Human - % Remaining after 30 min w/NADPH” value in [7] came to 0.38%. The “Liver Microsome Stability (Multiple Species): Rat - % Remaining after 30 min w/NADPH” value in [10] is 2.51%.

For the molecule `CC1CCCn2cnc(/C=C/c3csc(NC(=O)c4cccn4Cc4ccnc(F)c4)n3)c21` (stereo not drawn) [Compound B102, (E)-1-((2-fluoropyridin-4-yl)methyl)-N-(4-(2-(8-methyl-5,6,7,8-tetrahydroimidazo[1,5-a]pyridin-1-yl)vinyl)thiazol-2-yl)-1H-pyrrole-2-carboxamide], the pIC50 was 5.20 in data set [1], 7.44 in [4], less than 4.60 in data set [6] and 5.34 in data set [9]. Moreover, the “24 hr Dox Inducible IL2FLGluc 293FRT/TO: IL2/PD1” value in [1] was 170. In addition, the “Liver Microsome Stability (Multiple Species): Mouse - % Remaining after 30 min w/NADPH” value in [2] stood at 9.83%. The pEC50 in [3] was 4.67; in [8], less than 4.60. Besides, the “Liver Microsome Stability (Multiple Species): Monkey - % Remaining after 30 min w/NADPH” value in data set [5] is reported as 0.85%. Besides, the “24 hr Dox Inducible TNFaFLGluc 293FRT/TO: TNF/PD1” value in data set [6] is on record as greater than 681. In data set [7], the “Liver Microsome Stability (Multiple Species): Human - % Remaining after 30 min w/NADPH” value came to 0.71%. For the same molecule, the “Liver Microsome Stability (Multiple Species): Rat - % Remaining after 30 min w/NADPH” value in [10] was determined as 6.8%.

`CC(C)n1cc(/C=C/c2csc(NC(=O)c3cccn3Cc3ccnc(F)c3)n2)nc1CO` [Compound B103, (E)-1-((2-fluoropyridin-4-yl)methyl)-N-(4-(2-(2-(hydroxymethyl)-1-isopropyl-1H-imidazol-4-yl)vinyl)thiazol-2-yl)-1H-pyrrole-2-carboxamide]: the pIC50 in data set [1] is less than 4.60; in data set [4], 5.00; in data set [6] it was less than 4.60; in data set [9], less than 4.60. For the same molecule, in data set [1], the “24 hr Dox Inducible IL2FLGluc 293FRT/TO: IL2/PD1” value is listed as greater than 2.5. The “Liver Microsome Stability (Multiple Species): Mouse - % Remaining after 30 min w/NADPH” value in data set [2] came to 28.7%. In addition, the negative-log EC50 (pEC50) in data set [3] and in [8] was less than 4.60 in each case. Further, the “Liver Microsome Stability (Multiple Species): Monkey - % Remaining after 30 min w/NADPH” value in [5] was found to be 1.64%. In addition, in data set [6], the “24 hr Dox Inducible TNFaFLGluc 293FRT/TO: TNF/PD1” value was greater than 2.49. For the same molecule, the “Liver Microsome Stability (Multiple Species): Human - % Remaining after 30 min w/NADPH” value in data set [7] is listed as 1.87%. Further, the “Liver Microsome Stability (Multiple Species): Rat - % Remaining after 30 min w/NADPH” value in [10] was determined as 19.5%.

Take `O=C(Nc1nc(/C=C/c2cn(-c3ccccc3)cn2)cs1)c1cccn1Cc1ccnc(F)c1` [Compound B104, (E)-1-((2-fluoropyridin-4-yl)methyl)-N-(4-(2-(1-phenyl-1H-imidazol-4-yl)vinyl)thiazol-2-yl)-1H-pyrrole-2-carboxamide]: the pIC50 in data set [1] is 5.89; in data set [4], 8.21; in data set [6], 5.30; in data set [9] it was 6.10. Further, the “24 hr Dox Inducible IL2FLGluc 293FRT/TO: IL2/PD1” value in data set [1] was determined as 210. Further, the “Liver Microsome Stability (Multiple Species): Mouse - % Remaining after 30 min w/NADPH” value in data set [2] is 4.41%. For the same molecule, the pEC50 in data set [3] and in data set [8] was less than 4.60 in each case. In addition, in data set [5], the “Liver Microsome Stability (Multiple Species): Monkey - % Remaining after 30 min w/NADPH” value turned out to be 0.14%. Besides, in data set [6], the “24 hr Dox Inducible TNFaFLGluc 293FRT/TO: TNF/PD1” value came out at 809. In data set [7], the “Liver Microsome Stability (Multiple Species): Human - % Remaining after 30 min w/NADPH” value was determined as 0.21%. In addition, in data set [10], the “Liver Microsome Stability (Multiple Species): Rat - % Remaining after 30 min w/NADPH” value is listed as 2.24%.

In the case of `O=C(Nc1nc(/C=C/c2cn(Cc3ccccc3)cn2)cs1)c1cccn1Cc1ccnc(F)c1` [Compound B105, (E)-N-(4-(2-(1-benzyl-1H-imidazol-4-yl)vinyl)thiazol-2-yl)-1-((2-fluoropyridin-4-yl)methyl)-1H-pyrrole-2-carboxamide], the pIC50 in [1] is 5.55; in data set [4] it was 7.62; in data set [6], less than 4.60; in [9], 5.65. Moreover, the “24 hr Dox Inducible IL2FLGluc 293FRT/TO: IL2/PD1” value in data set [1] was 120. In [2], the “Liver Microsome Stability (Multiple Species): Mouse - % Remaining after 30 min w/NADPH” value was 4.32%. In addition, the pEC50 in data set [3] and in data set [8] was less than 4.60 throughout. Moreover, the “Liver Microsome Stability (Multiple Species): Monkey - % Remaining after 30 min w/NADPH” value in data set [5] was determined as 0.05%. Also, the “24 hr Dox Inducible TNFaFLGluc 293FRT/TO: TNF/PD1” value in [6] was greater than 1050. The “Liver Microsome Stability (Multiple Species): Human - % Remaining after 30 min w/NADPH” value in data set [7] is on record as 0.11%. The “Liver Microsome Stability (Multiple Species): Rat - % Remaining after 30 min w/NADPH” value in [10] is reported as 2.65%.

Source of the values: US20230286973A1, “PROTEIN SECRETION INHIBITORS” (KEZAR LIFE SCIENCES, priority 2020, published 2023).
